# Experimental data taken from patent US20260240772A1 (priority 2022, published 2026).
# How the values were obtained:
# normal mice [1] = conditions: subcutaneous injection 10 mg kg^−1; 5-30 min; FIG. 10B
# normal mice [2] = conditions: subcutaneous injection 10 mg kg^−1; 1 hour after injection; FIG. 10G
structure (smiles),measurement,setting,value
"CN1CC[C@]23c4c5ccc(O)c4O[C@H]2[C@@H](O)C=C[C@H]3[C@H]1C5 [morphine single drug, morphine]",heart rate compared with conditions before administration,normal mice [1],remarkably reduced
same,number of fecal particles compared with the solvent group,normal mice [2],remarkably reduced
